Data on four molecules can be found in publication PMC4885489, “Prediction of Drug-Drug Interactions Arising from CYP3A induction Using a Physiologically Based Dynamic Model” (Drug Metabolism and Disposition, 2016).

SMILES strings stand for the structures. pEC50, pKi: −log10 of the molar value. Values joined by “and” are separate entries in the source; they are usually repeats but may differ in a detail not shown here. Equal entries are not always repeated. Where two headings read alike, the source gives them in different places.

In one data set the test system is rCYP3A4. To be noted: ref (Cazali et al., 2003), (Huang et al., 2004), cited from earlier work.
In data set [1] the test system is CYP3A. Kind of data set: in vitro. To be noted: human, cryopreserved human hepatocytes.
For data set [2] the following is noted: ref Meta-analysis (Grimsley et al., 1991); (Di Salle et al., 1974); (Rawlins et al., 1975) and 4 others; cited from earlier work.
The conditions of data set [3]: Neutral; ref (Zhu et al., 2002); (Lombardo et al., 2000); (Henczi et al., 1995) and 4 others; cited from earlier work.
For data set [4] the following is noted: ref Meta-analysis (Bonneton et al., 1992); (de Groot et al., 1984); cited from earlier work.
The test system of data set [5] is HLM. Kind of data set: Additional (unassigned) intrinsic clearance. To be noted: Added to recover degree of auto-induction via enzymes other than CYP3A4.
For data set [6], the system named is CYP3A. To be noted: mean of four human hepatocyte donors; three-parameter fit; Indmax = Emax + 1.
For data set [7] the following is noted: cited from earlier work.
The subject of the next data set is rCYP3A5. As to conditions: cited from earlier work; for Km: read-out: rCYP3A5 Km.
Data set [8] deals with HLM. Also noted: method as in ref (Pearce et al., 2002). To be noted: Other enzymes were combined; ref (Pearce et al., 2002); cited from earlier work.
For another data set, the system named is rUGT2B7. Details: method as in ref (Staines et al., 2004). As to conditions: ref (Staines et al., 2004); cited from earlier work.
The conditions of data set [9]: cited from earlier work. The source holds these as a separate data set.
In data set [10] the test system is CYP3A. Put plainly: in vitro. To be noted: human, cryopreserved human hepatocytes, probe testosterone (6β-hydroxytestosterone formation).
Data set [11] relates to CYP3A. To be noted: mean of four human hepatocyte donors; three-parameter fit; Indmax = Emax + 1. The source holds these as a separate data set.
A further data set deals with rCYP2C8. Also noted: method as in ref (Cazali et al., 2003). As to conditions: ref (Cazali et al., 2003); cited from earlier work.
The conditions of data set [12]: cited from earlier work. The source holds these as a separate data set.
Data set [13] relates to CYP3A4. Kind of data set: Rifampicin-mediated clinical drug-drug interaction studies with CYP3A4 probe substrates. The data set is classed as in vivo, human. To be noted: for reduction in MDZ AUC, median: rifampicin, across clinical studies of Table 3; for fold induction: human, plasma, read-out: Geometric mean fold induction.
The subject of data set [14] is CYP3A4. As to conditions: human, in vivo, po, cited from earlier work.
The subject of another data set is rUGT1A4. As to conditions: corrected for fumic & ISEF, ref Meta-analysis (Emoto et al., 2003), (Galetin et al., 2004) and 7 others incl. (Hyland et al., 2009), cited from earlier work.
The subject of data set [15] is CYP3A4. As to conditions: read-out: CYP3A4 Ki; ref (Nielsen et al., 1999); (Ngui et al., 2000); (Guengerich et al., 1986); cited from earlier work.
The test system of a further data set is CYP2D6. Details: method as in ref (Ching et al., 1995); (Broly et al., 1989); (Lalovic et al., 2004). As to conditions: ref (Ching et al., 1995); (Broly et al., 1989); (Lalovic et al., 2004); cited from earlier work.
The test system of a further data set is rCYP1A2. To be noted: corrected for fumic & ISEF, ref (Von Moltke et al., 1999), cited from earlier work; for Km: read-out: rCYP1A2 Km.
In another data set the test system is rCYP2C9. To be noted: corrected for fumic & ISEF, ref (Von Moltke et al., 1999), cited from earlier work; for Km: read-out: rCYP2C9 Km.
Another data set has as its system rCYP2J2. To be noted: corrected for fumic & ISEF, ref (Von Moltke et al., 1999), cited from earlier work; for Km: read-out: rCYP2J2 Km.
The next data set relates to rCYP2C19. To be noted: M3, corrected for fumic & ISEF, ref (Von Moltke et al., 1999), cited from earlier work.
Data set [16] deals with CYP3A4. As to conditions: human, in vivo, cited from earlier work.
The subject of a further data set is rCYP2D6. To be noted: corrected for fumic & ISEF, ref (Von Moltke et al., 1999), cited from earlier work; for Km: read-out: rCYP2D6 Km.
Where [17] appears, read: 1-hydroxylation, corrected for fumic & ISEF, ref Meta-analysis (Emoto et al., 2003), (Galetin et al., 2004) and 7 others.
Setting [18] is: 4-hydroxylation, corrected for fumic & ISEF, ref Meta-analysis (Emoto et al., 2003), (Galetin et al., 2004) and 7 others.

`NC(=O)N1c2ccccc2C=Cc2ccccc21` [Carbamazepine, carbamazepine]: the Km in the data set with rCYP3A4 (read-out: rCYP3A4 Km) is 180 µM; in the data set on rCYP3A5 (ref (Huang et al., 2004)) it was 332 µM; with rUGT2B7, 25.4 µM; with rCYP2C8 it was 742 µM. Also, the “rCYP3A4 Vmax” value in the data set with rCYP3A4 is 0.72 pmol/min/pmol. Moreover, the pEC50 in the data set on CYP3A [1] and with CYP3A [10] was 4.23 in each case. For the same molecule, in data set [2], the fu is 0.25. In addition, the logP in data set [3] was 2.22. For the same molecule, the “B:P” value in [4] was 1.07. Further, the “Add rCYP CLint” value in the data set with HLM [5] came to 0.010 µL/min/pmol. In the data set on CYP3A [6], the “Activity Indmax” value was found to be 16.6 fold. Further, the ka in data set [7] (ref (Geradin et al., 1976), (Grimsley et al., 1991), (Olling et al., 1999), (Wong et al., 1983)) is 0.5 h⁻¹. Moreover, the fa in data set [7] (ref (Tchaparian et al., 2008), (Faigle and Feldmann, 1975), (Levy et al., 1975)) is on record as 0.84. For the same molecule, the “rCYP3A5 Vmax” value with rCYP3A5 (ref (Huang et al., 2004)) is listed as 1.44 pmol/min/pmol. In the data set on HLM [8], the “Add HLM CLint” value was 0.255 µL/min/mg. In addition, in the data set on rUGT2B7, the “rUGT2B7 Vmax” value was 4.18 pmol/min/pmol. The CLR in data set [9] (parent carbamazepine, ref (Kim et al., 2005)) is given as 0.0084 L/h. Further, the “mRNA Indmax” value with CYP3A [11] came to 21.9 fold. Besides, the “rCYP2C8 Vmax” value with rCYP2C8 is reported as 0.03 pmol/min/pmol. Further, the “Vss (Minimal PBPK)” value in data set [12] (ref (Ramsay et al., 1990)) is 0.78 L/kg.
For the molecule `Cc1ncc2n1-c1ccc(Cl)cc1C(c1ccccc1F)=NC2` [Midazolam, midazolam], the “reduction in MDZ AUC, median” value was 17.5 fold and 18.1 fold in the data set with CYP3A4 [13] (MDZ administered orally, listed as MDZ); 2.0 fold with CYP3A4 [13] (MDZ i.v. administration). Moreover, the fold induction in the data set on CYP3A4 [13] (iv) is 1.99; in the data set on CYP3A4 [13] (po) it was 18.1. For the same molecule, the “1/AUC ratio, CI of the observations” value in the data set with CYP3A4 [13] (meta-analysis of studies where midazolam was administered orally with rifampicin) is recorded as 5.4-60.4. Further, in data set [7] (ref (Allonen et al., 1981)), the ka is 3 h⁻¹. In addition, the “rCYP3A5 Vmax” value in the data set on rCYP3A5 (setting [17]) is 19.7 µL/min/pmol; in the data set on rCYP3A5 (setting [18]), 4.03 µL/min/pmol. The Km in the data set with rCYP3A5 (setting [17]) was 4.16 µM; in the data set on rCYP3A5 (setting [18]), 34.8 µM; in the data set with rUGT1A4 (read-out: rUGT1A4 Km), 40.3 µM. Further, in the data set on CYP3A4 [14] (0.075 mg), the AUC ratio is 2.3 fold. Moreover, the CLR in [9] (in vivo) is listed as 0.085 L/h. The Fe in data set [9] (in vivo) is on record as 0.0033. In addition, the “Vss (Minimal PBPK)” value in [12] (in vivo) is reported as 1 L/kg. Further, the “rUGT1A4 Vmax” value in the data set on rUGT1A4 is given as 445 µL/min/mg.
In the case of `C=C[C@H]1C[N@@]2CC[C@H]1C[C@@H]2[C@@H](O)c1ccnc2ccc(OC)cc12` [Quinidine, quinidine], the pKi is 4.40 in the data set on CYP3A4 [15] and […] in the data set on CYP2D6.
`Cc1ccc(-c2nc3ccc(C)cn3c2CC(=O)N(C)C)cc1` [Zolpidem, zolpidem]: the “rCYP1A2 Vmax” value was 7.99 µL/min/pmol in the data set on rCYP1A2 (M3) and 0.777 µL/min/pmol in the data set on rCYP1A2 (M4). For the same molecule, the Km in the data set on rCYP1A2 (M3) is 38 µM; in the data set with rCYP1A2 (M4) it was 40 µM; with rCYP2C9 (M3), 103 µM; in the data set on rCYP2C9 (M4) it was 81 µM; in the data set with rCYP2J2 (M3) it was 340 µM; with rCYP2J2 (M4) it was 399 µM. The Km was 133 µM in the data set with rCYP2C19 (read-out: rCYP2C19 Km), 190 µM in the data set on rCYP2D6 (M3) and 214 µM with rCYP2D6 (M4). Further, the ka in data set [7] (ref (Olubodun et al., 2003), (Patat et al., 1994)) is 2.25 h⁻¹. In addition, the “rCYP2C9 Vmax” value in the data set with rCYP2C9 (M3) is 17.42 µL/min/pmol; in the data set with rCYP2C9 (M4), 0.888 µL/min/pmol. Further, the figures for the AUC in the data set with CYP3A4 [14] (20 mg) and in the data set with CYP3A4 [16] (5 mg) were 1110 (36.9) ng/mL.h and 0.235 (70.4) mg/L.h, respectively. Also, the “1/AUC Ratio” value in the data set with CYP3A4 [14] is reported as 3.34; in the data set on CYP3A4 [16] it was 2.31. Besides, the AUCi was 332 (56.4) ng/mL.h in the data set with CYP3A4 [14] and 0.102 (58.1) mg/L.h in the data set on CYP3A4 [16]. Moreover, in [9] (in vivo), the CLR is reported as 0.18 L/h. In addition, in data set [9] (in vivo), the fe is recorded as 0.01. Also, the “rCYP2J2 Vmax” value with rCYP2J2 (M4) is listed as 6.86 µL/min/pmol. In addition, the “rCYP2C19 Vmax” value in the data set on rCYP2C19 is listed as 0.8 µL/min/pmol. In [12] (in vivo), the “Vss (Minimal PBPK)” value was 0.68 L/kg. Further, the “rCYP2D6 Vmax” value in the data set on rCYP2D6 (M3) is given as 1.44 µL/min/pmol; with rCYP2D6 (M4), 4.68 µL/min/pmol.

For orientation: Km means the substrate concentration at which the rate is half of its maximum. One may read the pEC50 as −log10 of the EC50, conventionally taken in molar units. A higher pEC50 goes with a low EC50. As usually defined, the logP is a log measure of how a compound divides between an organic and an aqueous phase. Usually pKi stands for the Ki on a negative log10 scale, so that one unit is a factor of ten.
